“Also recorded” adds a separate entry of the source. Read-outs that look alike come from different tables or passages of the source.
Key:
[1] = SV, 45 min
Experimental: Plasma and tissue levels of 5-MTHF were determined by high performance liquid chromatography (HPLC), as previously described (Leeming R J et al, Metabolism. 1990; 39:902).

[2] = ~45 min after 0.13 mg/kg i.v.
Experimental: (§5) Patients (n=56) undergoing CABG participated in a double-blind placebo controlled study, where they received an intravenous infusion of either 5-MTHF (Merck Eprova, Switzerland) or placebo, administered before the CABG. […] Samples 5 of SV and IMA were harvested ˜45 minutes after the infusion of 5-MTHF (mean time of harvesting 45.7±2.9 minutes after infusion), and assayed for NO-mediated vasomotor function, vascular superoxide production, tissue 5-MTHF and biopterin levels, as described below.
(§6) Blood samples were collected prior to administration of 5-MTHF or placebo, and at the time of vessel harvesting. […] Plasma and tissue levels of 5-MTHF were determined by high performance liquid chromatography (HPLC), as previously described (Leeming R J et al, Metabolism. 1990; 39:902).

[3] = 45 minutes after infusion of 5-MTHF; from 11.0±0.62 before
Text: (§1) In Vivo Studies. Patients (n=56) undergoing CABG participated in a double-blind placebo controlled study, where they received an intravenous infusion of either 5-MTHF (Merck Eprova, Switzerland) or placebo, administered before the CABG.

[4] = system: saphenous veins
Experimental: as §1
(§2) Vasomotor Studies. Endothelium-dependent and endothelium-independent dilatation were assessed using isometric tension studies, as previously described (Guzik T J et al, Circ Res. 2000; 86:e85). Vessel rings were equilibrated and passively pre-tensioned to 3 g, an optimal resting tension that was determined in baseline studies of contractile response to KCl. Following precontraction with phenylephrine (3×10^−6M), vasomotor responses to the endothelium-mediated agonists acetylcholine (ACh, 10^−9M to 10^−5M) and bradykinin (BK, 10^−9 M to 10^−5M), were quantified in 4 equally sized segments from the same vessel. In the ex vivo experiments, vasomotor responses were repeated after incubation for 45 minutes with 0 (control), 1, 10 or 100 μM 5-MTHF, added to the organ bath chambers. Finally, relaxations to the NO donor sodium nitroprusside (SNP, 10^−10M to 10^−6M), were evaluated in the presence of the NOS inhibitor NG-nitro-L-arginine methyl ester (L-NAME; 100 μM).

[5] = Superoxide scavenging assay, xanthine/xanthine oxidase system; assay type: biochemical
Experimental: Superoxide and Peroxynitrite Scavenging Assays. The direct superoxide scavenging effect of 5-MTHF was evaluated with the use of xanthine/xanthine oxidase system. Superoxide production was induced by adding xanthine oxidase ([…]/mL) in Krebs HEPES buffer (2 mL, pH=7.4) at 37° C., containing xanthine (0.133 mM) and lucigenin (5 μM), in the presence of 5-MTHF (0-100 μM) or equal concentrations of ascorbic acid as positive control. Peroxynitrite production was induced by adding 3-morpholinosydnonimine (SIN-1, 1 μM) in Krebs HEPES buffer (2 mL, pH=7.4) at 37° C. containing luminol (100 μM), in the presence of different concentrations of 5-MTHF (0-100 μM) or equal concentrations of uric acid as positive control as previously described (Kuzkaya N et al, J Biol Chem. 2003; 278:22546). The scavenging effects of 5-MTHF, vitamin C or uric acid were calculated as the percent inhibition of chemiluminescence compared with control.

[6] = target: eNOS (Homo sapiens, UniProt P29474); settings: IMA, 5-MTHF 1 μM for 45 minutes; paired control 0.14±0.02%/g
Sequence of eNOS (P29474 2-1203 limits assumed): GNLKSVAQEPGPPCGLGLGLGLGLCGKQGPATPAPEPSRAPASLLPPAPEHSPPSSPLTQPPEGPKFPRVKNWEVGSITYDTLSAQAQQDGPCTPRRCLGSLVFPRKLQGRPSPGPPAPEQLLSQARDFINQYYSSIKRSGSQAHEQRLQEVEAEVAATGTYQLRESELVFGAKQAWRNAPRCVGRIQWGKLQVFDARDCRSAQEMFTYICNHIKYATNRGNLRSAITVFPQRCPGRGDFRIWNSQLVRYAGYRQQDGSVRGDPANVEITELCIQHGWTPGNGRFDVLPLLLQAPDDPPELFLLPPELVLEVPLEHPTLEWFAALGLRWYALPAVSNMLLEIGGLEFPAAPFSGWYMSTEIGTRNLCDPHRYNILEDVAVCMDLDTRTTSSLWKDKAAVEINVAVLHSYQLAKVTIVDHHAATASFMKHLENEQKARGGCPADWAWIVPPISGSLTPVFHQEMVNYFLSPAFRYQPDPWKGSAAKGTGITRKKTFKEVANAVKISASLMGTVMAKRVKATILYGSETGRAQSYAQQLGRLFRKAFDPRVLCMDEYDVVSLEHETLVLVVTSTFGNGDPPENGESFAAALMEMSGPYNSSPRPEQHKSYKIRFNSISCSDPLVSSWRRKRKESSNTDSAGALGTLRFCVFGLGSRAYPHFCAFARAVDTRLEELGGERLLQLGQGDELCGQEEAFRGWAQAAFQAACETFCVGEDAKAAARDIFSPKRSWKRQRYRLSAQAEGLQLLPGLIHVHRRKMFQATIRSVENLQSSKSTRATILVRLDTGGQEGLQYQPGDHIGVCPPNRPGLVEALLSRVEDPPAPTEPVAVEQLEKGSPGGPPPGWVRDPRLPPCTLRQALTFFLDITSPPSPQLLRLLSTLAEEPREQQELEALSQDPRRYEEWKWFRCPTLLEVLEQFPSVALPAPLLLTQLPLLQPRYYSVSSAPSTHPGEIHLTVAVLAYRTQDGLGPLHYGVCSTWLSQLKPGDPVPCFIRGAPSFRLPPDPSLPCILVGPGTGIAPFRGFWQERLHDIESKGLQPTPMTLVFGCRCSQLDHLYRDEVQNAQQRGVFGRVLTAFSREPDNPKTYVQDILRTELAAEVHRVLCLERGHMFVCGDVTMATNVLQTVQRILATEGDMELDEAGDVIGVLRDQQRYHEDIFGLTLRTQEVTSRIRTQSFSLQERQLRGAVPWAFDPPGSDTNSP
Experimental: (§3) Vessel Harvesting and Ex Vivo Studies. Samples of SV (n=38) and IMA (n=46) from a total of 61 patients, were harvested during CABG operation, as previously described (Channon K M, Trends Cardiovasc Med 2004; 14:323-327; Guzik T J et al., Circulation 2002; 105:1656-1662). Vessel segments were transferred to the laboratory within 30 minutes, in ice cold Krebs-Henseleit buffer. Segments of SV and IMA were incubated with 5-MTHF (0-100 μM) in Krebs-Henseleit buffer for 45 minutes prior to assays of endothelial function, superoxide/peroxynitrite production, radio-labelled arginine/citrulline conversion, western blotting or tissue 5-MTHF and biopterin levels.

[7] = system: saphenous veins and internal mammary arteries; settings: ca. 45 min after 0.13 mg/kg i.v., vs placebo
Experimental: as §1
(§4) Superoxide/Peroxynitrite Measurements. Vascular superoxide production was measured from fresh human vessels using lucigenin (5 μM)-enhanced chemiluminescence as previously described (Skatchkov M P et al, Biochem Biophys Res Commun. 1999; 254:319). Samples of SV and IMA from the same patient were opened longitudinally to expose the endothelial surface and then equilibrated for 20 minutes in oxygenated (95% O2/5% CO2) Krebs-HEPES buffer (2 mL, pH=7.4) at 37° C. 14. NOS-derived superoxide was measured by adding L-NAME (100 μM) in the equilibrating buffer, and by calculating the difference in superoxide signal compared with basal conditions. Vascular peroxynitrite was determined using luminol (100 μM) instead of lucigenin, and by subtracting the remaining signal after adding the specific peroxynitrite scavenger uric acid (1 mM), as previously described (Laursen J B et al, Circulation. 2001; 103:1282).

[8] = system: saphenous veins; remark: listed apart in the source
Experimental: as §3, §2

[9] = system: vascular endothelium; settings: vessels from 5-MTHF-treated patients
Experimental: as §1
Oxidative Fluorescent Microtopography. In situ superoxide production was determined in vessel cryosections with the oxidative fluorescent dye dihydroethidium (DHE) (Bendall J K et al, Circ Res. 2005; 97:864). Paired cryosections ([…]) from the same vessel were incubated with DHE (2 μmol/L) in PBS, with or without L-NAME (100 μM). Fluorescence images (x40, Zeiss LSM 510 META laser 6 scanning confocal microscope) were obtained from each vessel quadrant, incorporating the luminal side of the vessel to quantify endothelial cell fluorescence. In each case, segments of vessel rings (with and without L-NAME) were analyzed in parallel with identical imaging parameters. DHE image analysis was carried out in a blinded fashion, and by two independent investigators, by using Image-Pro Plus software (Media Cybernetics).

[10] = system: saphenous veins and internal mammary arteries; settings: SV and IMA, higher 5-MTHF concentrations (10, 100 μM) compared with 1 μM
Experimental: as §3
as §4, with “Samples of SV and IMA from the same patient were opened longitudinally to expose the endothelial surface and then equilibrated for 20 minutes in oxygenated (95% O2/5% CO2) Krebs-HEPES buffer (2 mL, pH=7.4) at 37° C. 14.” left out

[11] = Peroxynitrite scavenging assay, SIN-1 system with luminol; assay type: biochemical; settings: SIN-1 1 μM; for direct peroxynitrite scavenging effect: concentrations as low as 1 μM, 5-MTHF and uric acid at equal concentrations
Experimental: Superoxide and Peroxynitrite Scavenging Assays. The direct superoxide scavenging effect of 5-MTHF was evaluated with the use of xanthine/xanthine oxidase system. […] The scavenging effects of 5-MTHF, vitamin C or uric acid were calculated as the percent inhibition of chemiluminescence compared with control.

[12] = system: saphenous veins and internal mammary arteries; settings: IMA, 45 min ex vivo with 1 μM 5-MTHF, vs control
Experimental: as §3
Determination of Biopterin Levels. Biopterin levels in human vessels were determined by HPLC, as previously described (Alp N J et al, J Clin Invest. 2003; 112:725) and expressed as pmol/g of tissue. To examine the effect of 5-MTHF on peroxynitrite-induced oxidation of BH4, SIN-1 (2 μM) was used to oxidize BH4 (0.1 μM) in the presence or absence of 5-MTHF (1 μM) at 37° C. for 14 minutes (Milstien S and Katusic Z. Biochem Biophys Res Commun. 1999; 263:681).

[13] = 0.13 mg/kg i.v.; for plasma concentration: preliminary studies
Experimental: as §5, §6

[14] = SV segments ~45 min after 0.13 mg/kg i.v., vs placebo
[15] = 5-MTHF 10 or 100 μM compared with 1 μM

CN1c2c(nc(N)[nH]c2=O)NCC1CNc1ccc(C(=O)N[C@@H](CCC(=O)O)C(=O)O)cc1 (stereo partly shown) [5-MTHF, 5-methyltetrahydrofolate]
vascular 5-MTHF levels ([1]; incubation with 5-MTHF 1 μM, control 0.40±0.06): 3.40±0.71 nmol/g tissue
vascular 5-MTHF levels ([1]; incubation with 5-MTHF 10 μM): 21.3±8.10 nmol/g tissue
vascular 5-MTHF levels ([1]; incubation with 5-MTHF 100 μM): 57.2±18.9 nmol/g tissue
tissue 5-MTHF levels ([2]; IMA, placebo 1.54±0.38): 12.7 ± 2.58 nmol/g
tissue 5-MTHF levels ([2]; SV, placebo 1.19±0.25): 9.35 ± 1.72 nmol/g
plasma tHcy [3]: 9.42 ± 0.46 µmol/L
absolute pre-contractions to phenylephrine ([4]; 5-MTHF-treated group, placebo 7.72±1.31 g): 8.20 ± 1.26 g
vasomotor responses to acetylcholine (ACh) [4, 14]: significantly greater
vasomotor responses to bradykinin (BK) [4, 14]: significantly greater
maximal vasorelaxations to ACh ([4]; SV segments ~45 min after 0.13 mg/kg i.v., placebo 19.4±3.3%): 43.2±4.5%
maximal vasorelaxations to BK ([4]; SV segments ~45 min after 0.13 mg/kg i.v., placebo 37.1±3.7%): 51.4±4.2%
effect on measurable superoxide ([5]; low concentrations (1-10 μM)): no detectable effect
superoxide scavenging effect ([5]; only at concentrations >10 μM (FIG. 5A)): weak superoxide scavenging effect
superoxide scavenging ([5]; very high concentrations (100 μM)): only modest superoxide scavenging
citrulline production (conversion of radio-labelled arginine to citrulline) [6]: 0.20±0.03 %/g tissue
vascular superoxide ([7]; IMA): significantly lower
vascular superoxide ([7]; SV): significantly lower
maximum relaxations to Ach [8, 15]: no further increase
maximum relaxations to BK [8, 15]: no further increase
vasomotor responses to the endothelium-independent agonist SNP ([8]; 5-MTHF-incubated vs control vessel segments, data not shown): no differences
absolute contractions in response to phenylephrine after incubation ([8]; baseline 7.9±0.8 g, after incubation): remained unchanged
DHE fluorescence in other regions of the vessel wall [9]: unaffected
vascular peroxynitrite production [10]: no further reductions
vascular superoxide production [10]: no further reductions
direct peroxynitrite scavenging effect [11]: strong direct peroxynitrite scavenging effect; also recorded: potent scavenging effect
reduction of measurable peroxynitrite ([11]; at 1 μM): 75%
BH4/tBio ratio [12]: increased
vascular BH4 [12]: increased
plasma concentration ([13]; 45 minutes after infusion): 1000 to 2000 nM
plasma 5-MTHF levels ([13]; at the time of vessel harvesting (~45 min), 5-MTHF-treated group): 2.28 ± 0.21 µM
plasma concentration ([13]; immediately after administration): 2000 to 3000 nM

O=C1O[C@H]([C@@H](O)CO)C(O)=C1O [ascorbic acid, reference compound]
reduction of measurable superoxide ([5]; at 1 μM): 50%
superoxide scavenging effect ([5]; even at low concentrations (FIG. 5A)): expected scavenging effect

O=c1[nH]c(=O)c2[nH]c(=O)[nH]c2[nH]1 [uric acid, reference compound]
direct peroxynitrite scavenging effect [11]: comparable
